Measurements published in patent US5811408A, “2'-deoxy-2'-(substituted or unsubstituted)methylidene-4'-thionucleosides” (Yamasa Corporation, priority 1994, dated 1998).
In brackets after ≈: the same amount, converted by molar mass.

How the values were obtained:
murine S-180 cells = test: Antitumor Activity in Mice Implanted with S-180 Cells (in vivo test); conditions: ICR mice, caudal vein, days 1-5 and 7-10; for Weight of Tumor (mean value ± SE): tumor removed on day 35, control 8.70 ± 1.31; for Inhibitory Rate: tumor weight on day 35
From the text: Antitumor Activity in Mice Implanted with S-180 Cells (in vivo test)
ICR mice were intraperitoneally inoculated with murine S-180 cells. On day 0, ascites was collected from the ICR mice, and Sarcoma 180 cells were subcutaneously implanted into ICR mice so that the number of the cells would be 5×10^6 /mouse. A sample was suspended in Macrogol-400/Tween 80 (6:0.8) so that the concentration thereof would be 10 times the concentration at the time of the administration thereof. Thereafter, the suspension was diluted to 1/10 with physiological saline, and injected once a day into the caudal vein of the mice on days 1-5, and on days 7-10. The antitumor effect (inhibitory rate) was evaluated by measuring the weight of the tumor removed on day 35.
The results of the test carried out by using the compound of the present invention (the beta-anomer of 2'-deoxy-2'-methylidene-4'-thiocytidine synthesized in Example 1) are shown in Table 3.

Lu-65 = test: Proliferation Inhibitory Activity on Cultured Cells (in vitro test, MTT), Lu-65; format: cell-based; conditions: Homo sapiens; Lu-65, Large cell lung carcinoma; 72 hours, 37° C.
Description: (§1) Proliferation Inhibitory Activity on Cultured Cells (in vitro test)
(§2) Cells in the logarithmic growth phase were suspended in a medium for inoculation, and seeded into each well of a 96-well plate so that the number of the cells would be 3×10^3 /180 microliters/well. To each well was added 20 microliters of a sample solution or water, and incubation was carried out at 37° C. for 72 hours. After incubation, 25 microliters of an MTT solution (2 mg/ml, prepared in PBS) was added, and incubation was further conducted at 37° C. for 4 hours. The medium was removed, and the MTT-formazane formed was dissolved in 200 microliters of dimethyl sulfoxide. The absorbance at 540 nm of this solution was measured by a microplate reader. The proliferation inhibitory rate obtained by calculation was plotted on a graph paper against the concentration of the sample. Then, the 50% inhibitory concentration (IC50) was determined for evaluation of the antitumor effect.
(§3) The results of the test carried out by using the compound of the present invention (the beta-anomer of 2'-deoxy-2'-methylidene-4'-thiocytidine synthesized in Example 1) are shown in Table 1.

KK-47 = test: Proliferation Inhibitory Activity on Cultured Cells (in vitro test, MTT), KK-47; format: cell-based; conditions: Homo sapiens; KK-47, Bladder carcinoma; 72 hours, 37° C.
Description: as §1, §2, §3

SK-Mel-28 = test: Proliferation Inhibitory Activity on Cultured Cells (in vitro test, MTT), SK-Mel-28; format: cell-based; conditions: Homo sapiens; SK-Mel-28, Melanoma; 72 hours, 37° C.
Description: as §1, §2, §3

QG-90 = test: Proliferation Inhibitory Activity on Cultured Cells (in vitro test, MTT), QG-90; format: cell-based; conditions: Homo sapiens; QG-90, Small cell lung carcinoma; 72 hours, 37° C.
Description: as §1, §2, §3

KKLS = test: Proliferation Inhibitory Activity on Cultured Cells (in vitro test, MTT), KKLS; format: cell-based; conditions: Stomach adenocarcinoma, 72 hours, 37° C.
Description: as §1, §2, §3

HEp-2 = test: Proliferation Inhibitory Activity on Cultured Cells (in vitro test, MTT), HEp-2; format: cell-based; conditions: Homo sapiens; HEp-2, Esophagus carcinoma; 72 hours, 37° C.
Description: as §1, §2, §3

NUGC-4 = test: Proliferation Inhibitory Activity on Cultured Cells (in vitro test, MTT), NUGC-4; format: cell-based; conditions: Homo sapiens; NUGC-4, Stomach adenocarcinoma; 72 hours, 37° C.
Description: as §1, §2, §3

MCF-7 = test: Proliferation Inhibitory Activity on Cultured Cells (in vitro test, MTT), MCF-7; format: cell-based; conditions: Homo sapiens, MCF7; MCF-7, Breast carcinoma; 72 hours, 37° C.
Description: as §1, §2, §3

Mia-PaCa-2 = test: Proliferation Inhibitory Activity on Cultured Cells (in vitro test, MTT), Mia-PaCa-2; format: cell-based; conditions: Homo sapiens; Mia-PaCa-2, Pancreas carcinoma; 72 hours, 37° C.
Description: as §1, §2, §3

HCT-15 = test: Proliferation Inhibitory Activity on Cultured Cells (in vitro test, MTT), HCT-15; format: cell-based; conditions: Homo sapiens; HCT-15, Colon adenocarcinoma; 72 hours, 37° C.
Description: as §1, §2, §3

Colo320DM = test: Proliferation Inhibitory Activity on Cultured Cells (in vitro test, MTT), Colo320DM; format: cell-based; conditions: Homo sapiens, COLO 320DM, Colon adenocarcinoma, 72 hours, 37° C.
Description: as §1, §2, §3

QG-96 = test: Proliferation Inhibitory Activity on Cultured Cells (in vitro test, MTT), QG-96; format: cell-based; conditions: QG-96, Small cell lung carcinoma; 72 hours, 37° C.
Description: as §1, §2, §3

HT1080 = test: Proliferation Inhibitory Activity on Cultured Cells (in vitro test, MTT), HT1080; format: cell-based; conditions: Homo sapiens, HT-1080; HT1080, Soft tissue sarcoma; 72 hours, 37° C.
Description: as §1, §2, §3

PC-10 = test: Proliferation Inhibitory Activity on Cultured Cells (in vitro test, MTT), PC-10; format: cell-based; conditions: Homo sapiens, PC10; PC-10, Lung squamous cell carcinoma; 72 hours, 37° C.
Description: as §1, §2, §3

A375 = test: Proliferation Inhibitory Activity on Cultured Cells (in vitro test, MTT), A375; format: cell-based; conditions: Homo sapiens, A-375; A375, Melanoma; 72 hours, 37° C.
Description: as §1, §2, §3

MG-63 = test: Proliferation Inhibitory Activity on Cultured Cells (in vitro test, MTT), MG-63; format: cell-based; conditions: Homo sapiens; MG-63, Osteosarcoma; 72 hours, 37° C.
Description: as §1, §2, §3

HOS = test: Proliferation Inhibitory Activity on Cultured Cells (in vitro test, MTT), HOS; format: cell-based; conditions: Homo sapiens, Osteosarcoma, 72 hours, 37° C.
Description: as §1, §2, §3

[1] = test system: murine P388 leukemia cells; test: Antitumor Activity in mice bearing P388 leukemia (in vivo test); conditions: BDF1 mice, 10 mg/kg intraperitoneally once a day, Day 1, 2, 5, 6
Description: Antitumor Activity in mice bearing P388 leukemia (in vivo test)
DBA/2 mice were intraperitoneally inoculated with murine P388 leukemia cells. On day 0, ascites was collected from the DBA/2 mice, and P388 leukemia cells were intraperitoneally implanted into BDF1 mice so that the number of the cells would be 1×10^6 /mouse. A sample was dissolved in dimethyl sulfoxide, and this sample solution was intraperitoneally administered to the mice once a day. The antitumor effect was evaluated by comparing the survival time of the administered group with that of the control group.
The results of the test carried out by using the compound of the present invention (the beta-anomer of 2'-deoxy-2'-methylidene-4'-thiocytidine synthesized in Example 1) are shown in Table 2.

`C=C1[C@H](n2ccc(N)nc2=O)S[C@H](CO)[C@H]1O` [Compound of the Invention, 2'-deoxy-2'-methylidene-4'-thiocytidine] was tested, and the “Weight of Tumor (mean value ± SE)” value (murine S-180 cells; 20 mg/kg/day) was 6.39 ± 1.07, the “Inhibitory Rate” value (murine S-180 cells; 20 mg/kg/day) was 26.6% and the “Weight of Tumor (mean value ± SE)” value (murine S-180 cells; 100 mg/kg/day) was 0.80 ± 0.24. The “Inhibitory Rate” value (murine S-180 cells; 100 mg/kg/day) was 90.8%, the IC50 (Lu-65) was 0.075 mg/L (≈ 0.294 µM) and the IC50 (KK-47) was 0.38 mg/L (≈ 1.49 µM). The IC50 (SK-Mel-28) was 0.092 mg/L (≈ 0.36 µM), the IC50 (QG-90) was 0.32 mg/L (≈ 1.25 µM) and the IC50 (KKLS) was 0.77 mg/L (≈ 3.02 µM). For the same compound, the IC50 (HEp-2) was 4.1 mg/L (≈ 16.1 µM), the IC50 (NUGC-4) was 0.6 mg/L (≈ 2.35 µM) and the IC50 (MCF-7) was 0.3 mg/L (≈ 1.18 µM). It also gave an IC50 (Mia-PaCa-2) of 2.4 mg/L (≈ 9.4 µM), an IC50 (HCT-15) of 0.65 mg/L (≈ 2.55 µM) and an IC50 (Colo320DM) of 0.06 mg/L (≈ 0.235 µM). For the same compound, the IC50 (QG-96) was 0.5 mg/L (≈ 1.96 µM), the IC50 (HT1080) was 0.21 mg/L (≈ 0.823 µM) and the IC50 (PC-10) was 1.5 mg/L (≈ 5.88 µM). For the same compound, the IC50 (A375) was 0.25 mg/L (≈ 0.979 µM), the IC50 (MG-63) was 0.53 mg/L (≈ 2.08 µM) and the IC50 (HOS) was 0.45 mg/L (≈ 1.76 µM). The “MST (Median survival time)” value ([1]; control (DMSO) 9.0 days) was 12.0 days and the T/C ([1]; survival vs control (DMSO) = 100) was 133%.
